Reference: US20150351401A1 (priority 2012, published 2015)

Each compound was assayed on Pyricularia oryzae (assay: not given). Conditions: comparison CM1, 7 days after inoculation.
Assay type: cell-based

| Compound | Growth (%) at 8 ppm Pyrior |
| --- | --- |
| OC(Cc1ccc(Oc2ccc(Cl)cc2)cc1Cl)(Cn1ncnc1S)C1(Cl)CC1 (stereo not drawn) [I-5] | 0% |
| OC(Cc1ccc(-c2ccc(Cl)cc2)cc1Cl)(Cn1ncnc1S)C1(Cl)CC1 (stereo not drawn) [I-6] | 0% |
| OC(Cc1ccccc1Cl)(Cn1ncnc1S)C1(Cl)CC1 (stereo not drawn) [drawing 129, reference compound] | 41% |

Same assay, conditions: comparison CM2, 7 days after inoculation

| Compound | Growth (%) at 8 ppm Pyrior |
| --- | --- |
| OC(Cc1ccc(Oc2ccc(Cl)cc2)cc1Cl)(Cn1ncnc1S)C1(Cl)CC1 (stereo not drawn) [I-5] | 0% |
| OC(Cc1ccc(Oc2ccc(Cl)cc2)cc1Cl)(Cn1cncn1)C1CC1 (stereo not drawn) [I-7, 1-[2-Chloro-4-(4-chlorophenoxyl)phenyl]-2-cyclopropyl-3-(1,2,4-triazol-1-yl)propan-2-ol] | 0% |
| OC(Cc1ccccc1Cl)(Cn1ncnc1S)C1(Cl)CC1 (stereo not drawn) [drawing 135, reference compound] | 41% |

These compounds were tested on Puccinia recondita (assay: CG1 Preventative control of brown rust on wheat caused by Puccinia recondita (Puccrt P1), greenhouse). Conditions: 75 ppm spray, wheat seedlings, inoculated next day; % diseased leaf area; untreated control 90.
Assay type: in vivo
Method: The Spray Solutions were Prepared in Several Steps:
The stock solution were prepared: a mixture of acetone and/or dimethylsulfoxide and the wetting agent/emulsifier Wettol, which is based on ethoxylated alkylphenoles, in a relation (volume) solvent-emulsifier of 99 to 1 was added to the initial weight of the compound to give a total of 5 ml. Water was then added to total volume of 100 ml. This stock solution was diluted with the described solvent-emulsifier-water mixture to the given concentration.
CG1 Preventative Control of Brown Rust on Wheat Caused by Puccinia recondita (Puccrt P1)
The first two developed leaves of pot-grown wheat seedling were sprayed to run-off with an aqueous suspension, containing the concentration of active ingredient or their mixture as described below. The next day the plants were inoculated with spores of Puccinia recondita. To ensure the success the artificial inoculation, the plants were transferred to a humid chamber without light and a relative humidity of 95 to 99% and 20 to 24° C. for 24 h. Then the trial plants were cultivated for 6 days in a greenhouse chamber at 20-24° C. and a relative humidity between 65 and 70%. The extent of fungal attack on the leaves was visually assessed as % diseased leaf area.

| Compound | Disease (%) at 75 ppm Puccrt P1 |
| --- | --- |
| OC(Cc1ccc(-c2ccc(Cl)cc2)cc1Cl)(Cn1cncn1)C1(Cl)CC1 (stereo not drawn) [I-3, 1-[2-chloro-4-(4-chlorophenyl)phenyl]-2-(1-chlorocyclopropyl)-3-(1,2,4-triazol-1-yl)propan-2-ol] | 20% |
| OC(Cc1ccc(Oc2ccc(Cl)cc2)cc1Cl)(Cn1cncn1)C1(Cl)CC1 (stereo not drawn) [I-4] | 20% |
| OC(Cc1ccccc1Cl)(Cn1cncn1)C1(Cl)CC1 (stereo not drawn) [reference compound] | 50% |
